How the values were obtained:
SMMC-7721-SC2 cells [1] = assay: Adhesion of cells transfected with OPN expression constructs; format: cell-based, human; details: 30-60 minutes
Experimental: To determine the affect of OPN fragments on adhesion, the following methods were used. SMMC-7721-SC2 cells (1×10^6) were trypsinized (E-PET, Biosource, CA) and transfected with the four OPN expression constructs shown in FIG. 3A and empty vector DNA (5 μg) (50-60% efficiency) using optimized conditions (Nucleofection, AMAXA, MD) and plated to 6-well plates. After a 24-hour recovery period, the cells were trypsinized and seeded by equal numbers (6×10^4) into fluorescent-read 96-well plates in serum-free media. Non-adherent cells were removed with a PBS wash after 2-60 minutes and fluorescence was quantified at EX485, EM530.

SMMC-7721-SC2 cells [2] = assay: Migration assay of cells transfected with OPN constructs; format: cell-based, human; details: vector controls, 24, 36, 48 hours
Experimental: (§1) Migration and invasion assays were performed as follows. Transfected SMMC-7721-SC2 cells (transfected with 5 μg plasmid DNA) were allowed to recover in 5% serum containing media and were re-counted prior to dilution in serum-free media. Cells were seeded (5×10^4) into the upper chambers of Matrigel coated 8 um pore membranes (HTSTM Fluoroblok tumor invasion system, BD Biosciences, MA) or uncoated […] pore membranes (HTSTM Fluoroblok insert system, BD Biosciences, MA). Media containing serum (5%) was added to the lower chambers as a chemotactic agent. Blocking antibodies to either the integrin αVβ3 receptor (clone LM609, Chemicon, CA) or a common determinant of the CD44 receptors (clone A020, Calbiochem, CA) were added to the upper chambers (4 μg/ml) at the time of cell seeding. Migrated cells were labeled with calcein AM (Molecular Probes, OR) at 37° C. for 1 hour, and fluorescence was measured at 24, 36, and 48 hours (EX 490 nm, EM 530 nm).

SMMC-7721-SC2 cells [3] = assay: Matrigel invasion assay (OPN constructs, blocking antibodies, OPN-5kD peptide); format: cell-based, human; details: 36 hours
Experimental: as §1
Cell invasion was measured as described in Example 4. Briefly, each of the OPN vectors shown in FIG. 3A (5 μg) were separately transfected into SMMC-7721 cells (1×10^6) using optimized conditions (Nucleofection, AMAXA). […] After 36 hours, the invaded cells were labeled with calcein at 37° C. for 1 hour and fluorescence was measured (EX485, EM530).
To determine the effect of blocking antibodies to the integrin aV133 and CD44 receptors on the affect of invasion of HCC cells expression OPN full-length or OPN-5 kD, integrin αVβ3 (Chemicon, CA) or CD44 (Calbiochem, CA) blocking antibodies were added (4 μg/ml) to cells transiently expressing OPN full-length and OPN-5kD. Invading cells were measured at 36 hours following calcein incorporation as described above.
To determine the effect of varying concentrations of the OPN-5kD peptide on invasion of HCC cells, SMMC-7721 cells were exposed to increasing concentrations of the OPN-5kD peptide (0.4 μM, 1 μM and 2 μM) and invading cells were measured after 36 hours following calcein incorporation as described above. […]

Human MMP-9 = target: T1, Human MMP-9 (Homo sapiens, UniProt P14780); assay: OPN cleavage assay with MMP-9 and MMP inhibitors; format: biochemical; details: Western blot after 1-hour digestion at 37° C.; EDTA 10 mM, MMP-9 inhibitor I 2 μM, TIMP-1 0.1 μM
T1 construct: purchased Calbiochem, CA
T1 sequence (P14780 94-707): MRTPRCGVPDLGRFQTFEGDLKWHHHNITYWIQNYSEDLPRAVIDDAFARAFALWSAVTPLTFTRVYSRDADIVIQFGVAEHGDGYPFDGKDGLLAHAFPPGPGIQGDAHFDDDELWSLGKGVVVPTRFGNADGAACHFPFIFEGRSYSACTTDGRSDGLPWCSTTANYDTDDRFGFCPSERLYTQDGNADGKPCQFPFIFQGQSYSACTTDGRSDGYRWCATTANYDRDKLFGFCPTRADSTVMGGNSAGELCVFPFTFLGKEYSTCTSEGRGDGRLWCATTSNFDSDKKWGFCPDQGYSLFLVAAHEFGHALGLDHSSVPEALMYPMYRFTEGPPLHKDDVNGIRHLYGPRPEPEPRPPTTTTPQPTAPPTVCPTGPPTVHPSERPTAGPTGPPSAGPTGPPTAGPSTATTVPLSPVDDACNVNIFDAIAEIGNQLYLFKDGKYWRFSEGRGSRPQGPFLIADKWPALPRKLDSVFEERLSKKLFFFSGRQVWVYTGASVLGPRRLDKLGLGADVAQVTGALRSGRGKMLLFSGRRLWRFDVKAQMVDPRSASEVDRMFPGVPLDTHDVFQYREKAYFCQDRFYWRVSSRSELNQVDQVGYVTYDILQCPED
Experimental: OPN cleavage assays were performed as follows. Human MMP-9 (Calbiochem, CA) was incubated at 37° C. for 3 hours with recombinant human OPN (R&D systems, MN) at an optimized ratio (5:1 substrate:enzyme) in a buffered solution (200 mM NaCl, 5 mM CaCl, 50 mM Tris-C1, pH 7.5). Digested OPN was analyzed by 16% tris-glycine SDS-PAGE followed by colloidal coomassie blue staining (SimplyBlue™, Invitrogen, CA). Separate cleavage reactions (2 μg OPN) were transferred to PDVF membranes for amino-end terminal microsequencing.
For western blot analysis, MMP-9-digested OPN samples and whole cell lysates (50 μg) were transferred to 0.22 um PVDF membranes and probed with a polyclonal antibody generated to a 14-residue peptide just downstream of the residue 169 thrombin cleavage site ([sequence]; amino acids 169-183 of SEQ ID NO: 2) (Abcam, MA). HEK-293 cell lysates were probed with an anti-FLAG antibody (Sigma, Mo.). Immuno-reactive proteins were detected by chemilluminescence (ECL, GE Healthcare Life Sciences, NJ).

SMMC-7721 SC2 cells = assay: Matrigel invasion assay with short overlapping peptides of OPN-5kD; format: cell-based, human; details: 36 hours; for effect on OPN-5kD induced invasion, separate addition: in conjunction with OPN-5kD, 1:1 molar, 2 μM each; for cellular invasion relative to media alone treated cells: peptide alone, 2 μM, p<0.05
Description: A 44 residue peptide corresponding to the OPN-5kD fragment (SEQ ID NO: 4), was synthesized and purified >97% by HPLC (EZBiolabs, IN). A series of short peptides spanning the region of residues 167-210 of OPN (SEQ ID NO: 2) were generated as follows. Eight small overlapping peptides spanning the OPN-5kD peptide were similarly synthesized to >75% purity (p1=[…], amino acids 167-176 of SEQ ID NO: 2; p2=[…], amino acids 172-181 of SEQ ID NO: 2; p3=[…], amino acids 177-186 of SEQ ID NO: 2; p4=[…], amino acids 182-191 of SEQ ID NO: 2; p5=[…], amino acids 187-196 of SEQ ID NO: 2; p6=[…], amino acids 192-201 of SEQ ID NO: 2; p7=[…], amino acids 197-206 of SEQ ID NO: 2; and p8=[…] amino acids 202-210 of SEQ ID NO: 2) (EZBiolabs, IN). The lyophilized peptides were resuspended in PBS and applied with cells to the upper wells of Matrigel invasion chambers at equal molar concentrations (2 μM). Invading cells were measured after 36 hours following calcein incorporation as described in the examples above.

SMMC-7721-SC2 cells [4] = assay: Cellular adhesion with exogenous intact or MMP-9 cleaved OPN; format: cell-based, human; details: GRGDS peptide 400 μM; OPN 250 nM
Experimental: Cellular adhesion was measured using the following methods. SMMC-7721-SC2 cells were seeded into the wells of a 96-well fluorescent-read plate in serum-free media (6×10^4 cells/well) with human OPN (0-250 nM) with or without prior digestion by MMP-9. Media and MMP-9 alone treated cells were included as controls. A GRGDS blocking peptide (400 μM) was added to separate media control, intact OPN, and MMP-9 cleaved OPN (250 nM) conditions. Non-adherent cells were removed with a PBS wash (100 μl) after one hour and adherent cells were quantified by CyQuant GR dye incorporation (Molecular Probes, OR) and detection at EX485, EM530.

Row | Molecule | adhesion after transient over-expression relative to controls, later time points (SMMC-7721-SC2 cells [1]) | SMMC-7721-SC2 migration relative to controls (SMMC-7721-SC2 cells [2]) | effect on OPN-5kD induced invasion, separate addition (SMMC-7721 SC2 cells) | cellular invasion relative to media alone treated cells (SMMC-7721 SC2 cells) | other results
1 | OPN-24 kD: OPN fragment residues 211-314; expressed from FLAG-tagged construct | decreased adhesion | decreased migration | – | – | cellular invasion compared to vector transfected cells (SMMC-7721-SC2 cells [3]): No significant difference
2 | O=C(O)CN(CCN(CC(=O)O)CC(=O)O)CC(=O)O [EDTA] | – | – | – | – | inhibition of MMP-9 cleavage of OPN (OPN-5kD fragment detection) (Human MMP-9): partially inhibited
3 | full-length OPN: wild-type osteopontin protein (OPN-a) expressed from FLAG-tagged construct | increased adhesion | induced SMMC-7721-SC2 migration | – | – | cellular invasion compared to vector transfected cells (SMMC-7721-SC2 cells [3]): slightly increased invasion
4 | ELNGAYKAIP (listed as Homo sapiens) [p7] | – | – | partial reduction in invasion | suppressive effect | –
5 | KKFRRPDIQY (listed as Homo sapiens) [p2] | – | – | insignificant effect | – | –
6 | PDIQYPDATD (listed as Homo sapiens) [p3] | – | – | partial reduction in invasion | suppressive effect | –
7 | HMESEELNGA (listed as Homo sapiens) [p6] | – | – | partial reduction in invasion | suppressive effect | –
8 | OPN-5kD: MMP-9 cleavage fragment of OPN, residues 167-210; expressed from FLAG-tagged construct | decreased adhesion | decreased migration | – | – | increase in cellular invasion (SMMC-7721-SC2 cells [3]; transfected cells, p=0.001): > 2 fold
9 | GRGDS [GRGDS peptide] | – | – | – | – | blocking of intact and cleaved OPN-mediated adhesion (SMMC-7721-SC2 cells [4]): blocked both intact and cleaved OPN-mediated adhesion

Reference: US8247183B2, “Compositions and methods for diagnosis and treatment of tumors” (The United States of America, as represented by the …, priority 2006, dated 2012)
